Assay results as given in patent US6528456B2, “Herbicidal 2-pyrazolyl-6-aryloxypyri(mi)dines” (BASF Aktiengesellschaft, priority 1999, dated 2003).

Assays:
Type in all cases: in vivo
Setaria viridis = assay: Pre-emergence test; details: 3 weeks after treatment
Procedure: (§1) To evaluate their herbicidal activity, compounds according to the invention are tested using a representative range of plants: SETVI Setaria viridis The pre-emergence tests involve spraying a liquid formulation of the compound onto the soil in which the seeds of the plant species mentioned above has recently been sown. The soil used in the tests is a prepared horticultural loam. The formulations used in the tests are prepared from solutions of the test compounds in acetone containing 0.4% by weight of an alkylphenol/ethylene oxide condensate available under the trade mark TRITON X-155. These acetone solutions are diluted with water and the resulting formulations applied at dosage levels corresponding to 0.025 kg, 0.100 kg or 0.400 kg of active material per hectare in a volume equivalent to 900 litres per hectare. In these tests untreated sown soil are used as controls. From 2 to 4 weeks after treatment, the tests are terminated and each pot is examined and rated according to the rating system set forth below: [table]

Stellaria media = assay: Pre-emergence test; details: 3 weeks after treatment
Procedure: as §1, with “STEME Stellaria media” for “SETVI Setaria viridis”

Zea mays = assay: Pre-emergence test; details: 3 weeks after treatment
Procedure: as §1, with “ZEAMX Zea mays” for “SETVI Setaria viridis”

Abutilon theophrasti = assay: Pre-emergence test; details: 3 weeks after treatment
Procedure: as §1, with “ABUTH Abutilon theophrasti” for “SETVI Setaria viridis”

Triticum aestivum [1] = assay: Pre-emergence test; details: 3 weeks after treatment
Procedure: as §1, with “TRZAW Triticum aestivum” for “SETVI Setaria viridis”

Triticum aestivum [2] = assay: Post-emergence test; details: 2-4 weeks after treatment
Procedure: (§2) To evaluate their herbicidal activity, compounds according to the invention are tested using a representative range of plants: TRZAW Triticum aestivum [table] […] These acetone solutions are diluted with water and the resulting formulations applied at dosage levels equivalent of about 0.1 to 0. 4 kg per hectare of test compound per pot. After spraying the plants are placed on greenhouse benches and are cared for in the usual manner, commensurate with conventional greenhouse practices. From 2 to 4 weeks after treatment, the seedling plants are examined and rated according to the rating system provided above.

Galium aparine = assay: Post-emergence test; details: 2-4 weeks after treatment
Procedure: as §2, with “GALAP Galium aparine” for “TRZAW Triticum aestivum”

Matricaria inodora = assay: Post-emergence test; details: 2-4 weeks after treatment
Procedure: as §2, with “MATIN Matricaria inodora” for “TRZAW Triticum aestivum”

Row | Compound | SETVI herbicidal rating (Setaria viridis; 0.025 kg/ha) | SETVI herbicidal rating (Setaria viridis; 0.100 kg/ha) | SETVI herbicidal rating (Setaria viridis; 0.400 kg/ha) | STEME herbicidal rating (Stellaria media; 0.025 kg/ha) | STEME herbicidal rating (Stellaria media; 0.100 kg/ha) | STEME herbicidal rating (Stellaria media; 0.400 kg/ha) | ZEAMX herbicidal rating (Zea mays; 0.025 kg/ha) | ZEAMX herbicidal rating (Zea mays; 0.100 kg/ha) | ZEAMX herbicidal rating (Zea mays; 0.400 kg/ha) | ABUTH herbicidal rating (Abutilon theophrasti; 0.100 kg/ha) | ABUTH herbicidal rating (Abutilon theophrasti; 0.400 kg/ha) | TRZAW herbicidal rating (Triticum aestivum [1]; 0.025 kg/ha) | TRZAW herbicidal rating (Triticum aestivum [1]; 0.100 kg/ha) | TRZAW herbicidal rating (Triticum aestivum [1]; 0.400 kg/ha) | TRZAW herbicidal rating (Triticum aestivum [2]; 0.1 kg/ha) | TRZAW herbicidal rating (Triticum aestivum [2]; 0.4 kg/ha) | GALAP herbicidal rating (Galium aparine; 0.1 kg/ha) | GALAP herbicidal rating (Galium aparine; 0.4 kg/ha) | MATIN herbicidal rating (Matricaria inodora; 0.1 kg/ha) | MATIN herbicidal rating (Matricaria inodora; 0.4 kg/ha) | other results
1 | Cn1nc(C(F)(F)F)cc1Oc1cc(C#N)cc(-c2cc(C(F)(F)F)nn2C)n1 [Example 3, 4-Cyano-2-(1-methyl-3-trifluoromethylpyrazol-5-yloxy)-6-(1-methyl-3-trifluoromethylpyrazol-5-yl)pyridine] | 3 (3 - Moderate effect) | 5 (5 - Definite injury) | 8 (8 - Approaching complete kill) | 8 (8 - Approaching complete kill) | 9 (9 - Complete kill) | 9 (9 - Complete kill) | 3 (3 - Moderate effect) | 3 (3 - Moderate effect) | 5 (5 - Definite injury) | 5 (5 - Definite injury) | 8 (8 - Approaching complete kill) | 0 (0 - No effect) | 0 (0 - No effect) | 4 (4 - Injury) | 3 (3 - Moderate effect) | 4 (4 - Injury) | 3 (3 - Moderate effect) | 9 (9 - Complete kill) | 8 (8 - Approaching complete kill) | 8 (8 - Approaching complete kill) | ABUTH herbicidal rating (Abutilon theophrasti; 0.025 kg/ha): 1 (1 - Trace effect)
2 | Cc1cnc(-c2cc(C(F)(F)F)nn2C)nc1Oc1cc(C(F)(F)F)nn1C [Example 4, 2-(1-Methyl-3-trifluoromethylpyrazol-5-yl)-6-(1-methyl-3-trifluoromethylpyrazol-5-yloxy)-5-methylpyrimidine] | 8 (8 - Approaching complete kill) | 9 (9 - Complete kill) | 9 (9 - Complete kill) | 9 (9 - Complete kill) | 9 (9 - Complete kill) | 9 (9 - Complete kill) | 2 (2 - Slight effect) | 2 (2 - Slight effect) | 3 (3 - Moderate effect) | 7 (7 - Good herbicidal effect) | 9 (9 - Complete kill) | 1 (1 - Trace effect) | 2 (2 - Slight effect) | 4 (4 - Injury) | 3 (3 - Moderate effect) | 5 (5 - Definite injury) | 8 (8 - Approaching complete kill) | 9 (9 - Complete kill) | 5 (5 - Definite injury) | 7 (7 - Good herbicidal effect) | ABUTH herbicidal rating (Abutilon theophrasti; 0.025 kg/ha): 4 (4 - Injury)
3 | Cc1cc(Oc2cccc(C(F)(F)F)c2)nc(-c2cc(C(F)(F)F)nn2C)c1 [Example 63] | 1 (1 - Trace effect) | 5 (5 - Definite injury) | 9 (9 - Complete kill) | – | 3 (3 - Moderate effect) | 9 (9 - Complete kill) | 0 (0 - No effect) | 0 (0 - No effect) | 0 (0 - No effect) | 0 (0 - No effect) | 2 (2 - Slight effect) | 0 (0 - No effect) | 0 (0 - No effect) | 0 (0 - No effect) | 3 (3 - Moderate effect) | 3 (3 - Moderate effect) | 5 (5 - Definite injury) | 5 (5 - Definite injury) | 5 (5 - Definite injury) | 7 (7 - Good herbicidal effect) | –
